Experimental data reported in ChEMBL document CHEMBL1201862, “PubChem BioAssay data set” (2004).
The source made the active and inactive calls. Rule as the data show it, for most assays here: actives have a measured EC50 and inactives only a lower limit.
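For AC50 in this document: PubChem cytochrome P450 panel assay, CYP1A2 panel member.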

These compounds were tested against T1, Corticotropin-releasing factor receptor 2/Corticotropin-releasing factor-binding protein (Homo sapiens, UniProt P24387+Q13324) (assay: activators of CRF receptor 2 with binding protein – uHTS hits, confirmation (AID 602473)). Details: read-out: EC50_Mean.
T1 sequence (Q13324 whole entry): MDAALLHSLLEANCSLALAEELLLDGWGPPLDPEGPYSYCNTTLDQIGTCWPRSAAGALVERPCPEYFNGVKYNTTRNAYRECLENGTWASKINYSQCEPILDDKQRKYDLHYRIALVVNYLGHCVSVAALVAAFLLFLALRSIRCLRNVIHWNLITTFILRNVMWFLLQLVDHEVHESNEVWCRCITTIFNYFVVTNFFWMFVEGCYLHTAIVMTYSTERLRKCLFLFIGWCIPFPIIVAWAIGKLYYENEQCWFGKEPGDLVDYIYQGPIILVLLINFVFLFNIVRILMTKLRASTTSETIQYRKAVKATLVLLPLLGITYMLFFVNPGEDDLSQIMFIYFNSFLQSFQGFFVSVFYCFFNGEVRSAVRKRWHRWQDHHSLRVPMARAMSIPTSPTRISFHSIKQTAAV
T1 sequence (P24387 whole entry): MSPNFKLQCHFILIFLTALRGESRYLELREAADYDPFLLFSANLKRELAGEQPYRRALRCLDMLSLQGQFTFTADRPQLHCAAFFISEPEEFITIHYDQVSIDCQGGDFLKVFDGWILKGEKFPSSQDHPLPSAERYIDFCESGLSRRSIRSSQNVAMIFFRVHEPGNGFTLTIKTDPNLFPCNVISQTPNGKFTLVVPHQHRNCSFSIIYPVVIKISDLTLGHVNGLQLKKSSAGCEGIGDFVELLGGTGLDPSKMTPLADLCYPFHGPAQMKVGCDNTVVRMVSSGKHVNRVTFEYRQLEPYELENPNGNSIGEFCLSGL
Type: functional
In the case of `CN1C(=O)C(=Cc2ccc(N3CCOCC3)o2)C(=O)N(C)C1=S`, the EC50 is reported as 7.57 µM (active). With `Cc1c(-n2cc(C(=O)c3cc(F)ccc3O)cc(C#N)c2=O)c(=O)n(-c2ccccc2)n1C` the EC50 was > 53 µM (inactive). In the case of `CCOC(=O)N1CCN(CC(O)c2ccc3cc[nH]c3c2)CC1` (stereo unspecified), the EC50 is reported as > 53 µM (inactive). In the case of `CCCCn1c(=N)c(S(=O)(=O)c2ccc(Br)cc2)cc2c(=O)n3cccc(C)c3nc21`, the EC50 is reported as > 53 µM (inactive). In the case of `CC1CC(C)CN(C2CCCCC2NS(=O)(=O)c2ccc(Cl)cc2)C1` (stereo unspecified), the EC50 is reported as 6.53 µM (active). `COc1ccc(NS(=O)(=O)c2ccc(C(=O)N3CCC(C)CC3)cc2)cc1` was tested, and the EC50 was 9.87 µM (active).

What follows are compounds tested against T2, Streptokinase A (Streptococcus pyogenes serotype M1, UniProt P10520) (assay: S. pyogenes streptokinase expression inhibitors, potency, dose response, plasminogen activation absorbance, OD405 (AID 1914)). Details: not given.
T2 sequence (P10520 whole entry): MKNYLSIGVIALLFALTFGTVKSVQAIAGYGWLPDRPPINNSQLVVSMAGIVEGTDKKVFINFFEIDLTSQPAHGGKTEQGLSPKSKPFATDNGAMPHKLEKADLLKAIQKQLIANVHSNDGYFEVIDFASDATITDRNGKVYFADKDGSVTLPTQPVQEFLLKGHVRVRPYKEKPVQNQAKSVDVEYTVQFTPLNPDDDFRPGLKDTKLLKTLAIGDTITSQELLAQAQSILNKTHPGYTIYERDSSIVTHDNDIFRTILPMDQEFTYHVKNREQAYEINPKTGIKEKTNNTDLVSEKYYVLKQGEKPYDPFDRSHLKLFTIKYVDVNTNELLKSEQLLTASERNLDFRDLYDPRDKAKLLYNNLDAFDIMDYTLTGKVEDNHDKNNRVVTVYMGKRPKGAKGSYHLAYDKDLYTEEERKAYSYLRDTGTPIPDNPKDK
Type: functional, Streptococcus pyogenes M1 GAS
For `COc1ccc(NC(=O)CSc2ccc3nnc(-c4ccccn4)n3n2)c(OC)c1`, the EC50 was > 150 µM (not active). For `C=CCn1c(Oc2ccc(C(=O)OC)cc2)nc2c1c(=O)n(C)c(=O)n2C`, the EC50 was > 150 µM (not active). `CCOc1ccc(C)cc1S(=O)(=O)NC1CCCCCC1` was tested, and the EC50 was > 150 µM (not active). In the case of `Cc1ccc(C(=O)N2CCOCC2)cc1S(=O)(=O)N1CCOCC1`, the EC50 is reported as > 150 µM (not active). For `Cn1c(Oc2ccccc2NCc2cc(Br)ccc2O)cc(=O)n(C)c1=O`, the EC50 was > 150 µM (not active). With `Cc1cccc(NC(=O)C(=O)NNC(=O)c2ccc(C(C)(C)C)cc2)c1` the EC50 was > 150 µM (not active). `COC(=O)[C@@]12CCCN1[C@H](c1ccc(-c3cccc(Cl)c3)c(OC)c1)[C@H]1C(=O)N(C)C(=O)[C@H]12` was tested, and the EC50 was > 150 µM (not active). In the case of `Cc1ccc(NC(=S)NC2CCSc3ccccc32)cc1C` (stereo unspecified), the EC50 is reported as 24.3 µM (active). With `COc1ccc(C(=O)Nc2c3c(nn2-c2ccc([N+](=O)[O-])cc2)CS(=O)(=O)C3)cc1` the EC50 was > 150 µM (not active). For `Clc1ccc(C2C3=C(Nc4ncnn42)c2ccccc2CC3)cc1` (stereo unspecified), the EC50 was > 150 µM (not active).

Each compound was assayed against T3, Cytochrome P450 1A2 (Homo sapiens, UniProt P05177). Details: not given.
T3 sequence (P05177 whole entry): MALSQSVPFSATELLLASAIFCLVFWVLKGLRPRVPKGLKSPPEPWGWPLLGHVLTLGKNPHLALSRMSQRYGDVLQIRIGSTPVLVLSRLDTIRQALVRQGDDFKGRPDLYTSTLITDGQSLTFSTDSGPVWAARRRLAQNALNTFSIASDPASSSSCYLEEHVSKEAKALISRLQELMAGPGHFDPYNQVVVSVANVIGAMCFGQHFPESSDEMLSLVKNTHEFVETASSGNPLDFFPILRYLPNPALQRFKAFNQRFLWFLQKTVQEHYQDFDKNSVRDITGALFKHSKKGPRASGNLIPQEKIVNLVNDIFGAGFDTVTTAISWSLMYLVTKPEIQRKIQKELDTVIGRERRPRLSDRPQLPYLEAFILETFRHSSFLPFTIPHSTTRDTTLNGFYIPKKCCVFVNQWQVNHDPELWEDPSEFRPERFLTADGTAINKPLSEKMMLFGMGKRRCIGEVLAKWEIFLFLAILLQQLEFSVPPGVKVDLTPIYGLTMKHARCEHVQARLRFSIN
For `O=C(O)c1ccc(N2C=[N+]3C(=Nc4ccccc43)C2)cc1`, the AC50 was 5.01 µM (inconclusive). `CNC(=O)[C@H](C)[C@H]1C[C@]1(C)[C@H](NC(=O)OCc1ccccc1)c1ccccc1` was tested, and the AC50 was 20 µM (inconclusive). With `O=C(N[C@@H](c1ccccc1)[C@@H]1C[C@H]1C(=O)O)OCc1ccccc1` the AC50 was 20 µM (inconclusive). With `O=C1c2cccnc2C(=O)N1Cc1ccc(F)cc1` the AC50 was 17.8 µM (inconclusive). In the case of `CCOC(=O)N1CCN(c2c(O)nc3ccc(Cl)cc3c2-c2ccccc2)CC1`, the AC50 is reported as 0.158 µM (inconclusive). In the case of `CN1CCN(c2ncc3nc(-c4cn(C)c5ccccc45)c(=O)n(-c4ccccc4)c3n2)CC1`, the AC50 is reported as 15.8 µM (inconclusive). `COc1ccccc1CNc1ncnc2ccc(-c3ccccc3CN(C)C)cc12` was tested, and the AC50 was 15.8 µM (inconclusive).

What follows are compounds tested on Streptococcus sp. 'group A' (assay: growth inhibition of control SK(-) GAS strain, dose response, counter-screen for streptokinase expression inhibitor project, luminescence, kanamycin, BacTiterGlo, confirmation (AID 1900)). Details: not given.
Type: functional, organism-based
For `COc1ccc(NC(=O)CSc2ccc3nnc(-c4ccccn4)n3n2)c(OC)c1`, the EC50 was > 150 µM (not active). For `C=CCn1c(Oc2ccc(C(=O)OC)cc2)nc2c1c(=O)n(C)c(=O)n2C`, the EC50 was 12.4 µM (active). `CCOc1ccc(C)cc1S(=O)(=O)NC1CCCCCC1` was tested, and the EC50 was > 150 µM (not active). In the case of `Cc1ccc(C(=O)N2CCOCC2)cc1S(=O)(=O)N1CCOCC1`, the EC50 is reported as > 150 µM (not active). With `Cn1c(Oc2ccccc2NCc2cc(Br)ccc2O)cc(=O)n(C)c1=O` the EC50 was 6.42 µM (active). `Cc1cccc(NC(=O)C(=O)NNC(=O)c2ccc(C(C)(C)C)cc2)c1` was tested, and the EC50 was 9.34 µM (active). In the case of `COC(=O)[C@@]12CCCN1[C@H](c1ccc(-c3cccc(Cl)c3)c(OC)c1)[C@H]1C(=O)N(C)C(=O)[C@H]12`, the EC50 is reported as 105 µM (active). In the case of `COc1ccc(C(=O)Nc2c3c(nn2-c2ccc([N+](=O)[O-])cc2)CS(=O)(=O)C3)cc1`, the EC50 is reported as 16.1 µM (active). `Clc1ccc(C2C3=C(Nc4ncnn42)c2ccccc2CC3)cc1` (stereo unspecified) was tested, and the EC50 was 7.5 µM (active).

Each compound was assayed on Streptococcus (assay: Group A Streptococcus viability loss, dose response, counter-screen for streptokinase expression inhibitor project, luminescence, BacTiterGlo (AID 1915)). Details: not given.
Type: functional, organism-based
For `COc1ccc(NC(=O)CSc2ccc3nnc(-c4ccccn4)n3n2)c(OC)c1`, the EC50 was > 150 µM (not active). `C=CCn1c(Oc2ccc(C(=O)OC)cc2)nc2c1c(=O)n(C)c(=O)n2C` was tested, and the EC50 was > 150 µM (not active). With `CCOc1ccc(C)cc1S(=O)(=O)NC1CCCCCC1` the EC50 was > 150 µM (not active). For `Cc1ccc(C(=O)N2CCOCC2)cc1S(=O)(=O)N1CCOCC1`, the EC50 was > 150 µM (not active). In the case of `Cn1c(Oc2ccccc2NCc2cc(Br)ccc2O)cc(=O)n(C)c1=O`, the EC50 is reported as 16.1 µM (active). In the case of `Cc1cccc(NC(=O)C(=O)NNC(=O)c2ccc(C(C)(C)C)cc2)c1`, the EC50 is reported as 25.4 µM (active). In the case of `COC(=O)[C@@]12CCCN1[C@H](c1ccc(-c3cccc(Cl)c3)c(OC)c1)[C@H]1C(=O)N(C)C(=O)[C@H]12`, the EC50 is reported as > 150 µM (not active). `COc1ccc(C(=O)Nc2c3c(nn2-c2ccc([N+](=O)[O-])cc2)CS(=O)(=O)C3)cc1` was tested, and the EC50 was > 150 µM (not active). `Clc1ccc(C2C3=C(Nc4ncnn42)c2ccccc2CC3)cc1` (stereo unspecified) was tested, and the EC50 was 43.2 µM (active).
